Biological target: T1, Aβ depositions in Tg2576 mouse brain (Homo sapiens, UniProt P05067)
T1 construct: Aβ(1–40) aggregates, the predominant amyloid found in CAA; tissue Taconic Farms, Inc. (New York, USA); host or cells: brain of living female Tg2576 transgenic mice
Test: Ex vivo autoradiography using Tg2576 and wild-type mice
Assay type: in vivo
Details: for Selectivity for vascular versus parenchymal amyloid aggregates (ex vivo autoradiography, thioflavin-S and anti-CD31 staining): Tg2576 mice, 30 min postinjection
Description: Tg2576 transgenic mice (female, 29 months old) and wild-type mice (female, 29 months old) were used as the AD model and age-matched control, respectively. A saline solution (150 μL) of [^99mTc]SB2A or [^99mTc]BT2B (18.5 MBq) containing EtOH (30 μL) was injected through the tail vein. The mice were sacrificed at 30 min postinjection. The brains were immediately removed, embedded in carboxymethylcellulose solution and then frozen in a dry ice/hexane bath. Sections of 30 μm were cut and exposed to a BAS imaging plate (Fuji Film) overnight. Autoradiographic images were obtained using a BAS5000 scanner system (Fuji Film). After autoradiographic examination, the same sections were stained by thioflavin-S to confirm the presence of Aβ depositions. For thioflavin-S fluorescent staining, the sections were immersed in a 100 μM thioflavin-S solution containing 50% EtOH for 3 min, washed in 50% EtOH for 1 min two times, and examined using a microscope (Keyence Corp.) equipped with a GFP-BP filter set. Additionally, the same sections were immunostained by anti-CD31 antibody to confirm the presence of endothelial cells. For immunohistochemical staining of CD31, the sections were incubated in PBST for 5 min three times, and incubated with anti-CD31 primary antibody (SZ31; Abcam, Cambridgeshire, U.K., dilution 1:50) at room temperature overnight. After three 5-min incubations in PBST, anti-rabbit secondary antibody (Dako, California, USA) incubation was carried out at room temperature for 3 h. Subsequently, the sections were incubated in PBST for 5 min three times, and incubated with diaminobenzidine (Merck) as a chromogen for 5 min. After washing with water, the sections were observed under a microscope (Keyence Corp.).
Ex vivo autoradiography using Tg2576 and wild-type mice. Tg2576 transgenic mice (female, 29 months old) and wild-type mice (female, 29 months old) were used as the Alzheimer’s model and age-matched control, respectively. A saline solution (150 µL) of [^99mTc]BT2B (18.5 MBq) containing ethanol (30 µL) was injected through the tail vein. […]

T1 sequence (P05067 672-711 limits assumed): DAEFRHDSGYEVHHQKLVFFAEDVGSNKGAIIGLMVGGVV

Structure (SMILES): CN(C)c1ccc(/C=C/c2ccc(C3=N[O][99Tc-]4(=[O])([NH]3)[NH2+]C(c3ccc(/C=C/c5ccc(N(C)C)cc5)cc3)=N[O]4)cc2)cc1 (single isomer, unassigned) [[^99mTc]SB2A]
- Ex vivo autoradiography labeling of Aβ depositions in transgenic mice (Tg2576 mice (29 months old) vs wild-type, i.v., brains removed at 30 min postinjection): intensive labeling of Aβ depositions
- Selectivity for vascular versus parenchymal amyloid aggregates (ex vivo autoradiography, thioflavin-S and anti-CD31 staining): selectively bound to amyloid aggregates deposited along vessels but not within parenchyma

Structure (SMILES): CN(C)c1ccc(-c2nc3ccc(C4=N[O][99Tc-]5(=[O])([NH]4)[NH2+]C(c4ccc6nc(-c7ccc(N(C)C)cc7)sc6c4)=N[O]5)cc3s2)cc1 [[^99mTc]BT2B]
- Selectivity for vascular versus parenchymal amyloid aggregates (ex vivo autoradiography, thioflavin-S and anti-CD31 staining): specific detection of CAA

From publication PMC4867616, “Imaging of Cerebral Amyloid Angiopathy with Bivalent ^99mTc-Hydroxamamide Complexes” (Scientific Reports, 2016)
